“Also recorded” adds a separate entry of the source.
Legend:
Xenopus embryos = test: Xenopus whole embryo culture in pathway antagonists, in-situ hybridization for thyroid markers; format: in vivo; details: for nkx2-1 induction in the developing thyroid primordium: inhibitor from stage NF13 through NF35, XAV939 50 μM, BMS493 10 μM; for induction of thyroid markers foxe1, nkx2-1, pax2 and hhex: inhibitor from stage NF13 until NF20, DMH-1 40 μM, SU5402 10 μM
Method: Xenopus embryos were generated by in vitro fertilization and assayed by in situ hybridization or confocal immunostaining as previously described (Rankin et al., 2015). Small molecule inhibitors were dissolved in DMSO according to manufacturer's instructions and added to the embryo culture saline at the following working concentrations: 10 μM SU5402 (Tocris Bioscience), 40 μM DMH-1 (Sigma), 50 μM XAV939 (Sigma) and 10 μM BMS493 (Tocris Bioscience). Foregut explants were dissected from stage NF15 and treated with Dispase (BD Pharmingen) for 15 minutes and then the mesoderm was manually removed. Foregut endoderm was then cultured in 0.5× Modified Barth's Saline with 0.1% BSA with or without 500 ng/ml rhFGF2 and 50 ng/ml rhBMP4 (R&D systems).

pSmad1/5 = test: Western blot of pSmad1/5 content in mouse foregut explants; format: cell-based; details: 24 hours of treatment, DMH-1 1.5 μM vs vehicle
Method: (§1) Whole foreguts were dissected from E8.5 embryos (6-8 somite pairs) in Hank's balanced salt solution (HBSS) then explanted onto 8 μm pore size Whatman Nucleopore Track-Etch Membranes (Millipore). Explants were cultured for 2-3 days in a base medium (BGJb medium (Gibco)+10% fetal bovine serum (FBS, Sigma) and 0.2 mg/ml ascorbic acid) containing either the BMPR inhibitor DMH-1 (1.5 μM, Tocris) or DMSO as a vehicle control. Whole mount immunostaining was performed using a modification of the method of Ahnfelt-Ronne et al. (Ahnfelt-Ronne et al., 2007). The primary antibodies used were: guinea pig anti-Nkx2-1 (Seven Hill Bioreagents; 1:500), rabbit anti-Pax8 (Protein Tech; 1:500) and rat anti-Ecad (R&D; 1:2000). After staining, samples were cleared with Murray's clear (2:1 benzyl benzoate: benzyl alcohol) and imaged using a Nikon A1Rsi inverted laser confocal microscope. Imaris software was used to analyze the images. DMH-1 treated and control explants were harvested and lysed in Laemmli buffer after 24 hours of treatment. Lysates were electrophoresed on a 10-20% Tris-glycine gel under reducing conditions, Western blotted, and probed with antibodies (Cell Signaling) to detect total Smad1/5 and pSmad 1/5 content; β-actin content served as a loading control.

mouse foregut explants = test: Mouse E8.5 whole foregut explant culture, whole mount immunostaining for Nkx2-1 and Pax8; format: cell-based; details: 6-8 somite foreguts, 2-3 days, DMH-1 1.5 μM vs DMSO
Method: as §1

[1] = system: Nkx2-1GFP+; Pax8tdTomato trace+ iPSC-derived cells; test: Lineage specification of bifluorescent reporter iPSC line by day 14; format: cell-based, mouse; details: data not shown; for efficiency of lineage specification of Nkx2-1GFP+; Pax8tdTomato trace+ cells: Wnt inhibitor added to induction media; for efficiency of lineage specification, percent yield of GFP+/tdTomato+ cells: factor withdrawn or removed from the Nkx2-1 induction media
Nkx2-1mCherry ESC line = test: Maturation of ESC-derived Nkx2-1mCherry+ thyroid progenitors, marker mRNA by RT-PCR; format: cell-based, mouse; details: for thyroid specific gene expression: media used from D22 to D26, RT-PCR at Day 26
Method: Further differentiation and maturation of Nkx2-1+ sorted cells was performed in either 2D or 3D culture conditions, as indicated in the text. For 2D differentiation cells sorted on day 14 were replated and grown for 8 more days in cSFDM supplemented with 250 ng/ml mFGF2, 100 ng/ml hFGF10 and 100 ng/ml Heparin Sodium Salt. […] During the first 48 hours after sorting media was supplemented with 10 μM Y27632 (Sigma Y0503). From day 20-26 5 μg/ml ITS was included in the media. […] For cultures longer than 30 days, cells were splitted using Dispase (Corning 354235) on Day 30 and re-embedded in pure Matrigel, and fed with thyroid maturation media until the harvest day indicated in the text. RNA (for FIGS. 1 to 3 and 11c) was extracted from cells using the RNeasy kit (Qiagen 74104) following the manufacturer's protocol. 150 ng of RNA was reverse transcribed to cDNA using TaqMan reverse transcription reagents (Applied Biosystems N8080234) and the manufacturer's protocol. cDNA template was diluted 1:4, and 2 μl of the diluted template was used per 25 μl real time PCR reaction using Taqman Fast Universal PCR Master Mix (Applied Biosystems 4352042) and run in technical triplicates up to 40 cycles of PCR on the Applied Biosystems StepOne machine. Alternatively, 1 μl of the diluted template was used per 13 μl real time reaction on the Applied Biosystems 7900HT Real Time PCR System. Relative gene expression, normalized to 18S control, was calculated as fold change in 18S-normalized gene expression, over baseline, using the 2^(-ΔΔCT) method. Baseline, defined as fold change=1, was set to undifferentiated embryonic stem cell levels, or if undetected, a cycle number of 40 was assigned to allow fold change calculations. For FIGS. 5 and 11 (except FIG. 11c) total RNA was extracted from cultured cells using Stat-60 reagent (Tel-Test Cs-502). Then, 150 ng of total RNA was reverse transcribed using a SuperScript Vilo cDNA synthesis kit from Invitrogen. qPCR was performed in duplicate using the 800HT thermal cycler (Applied Biosystems). Relative mRNA levels were calculated using the standard curve method and normalized to peptidylprolyl isomerase A (cyclophilin). Cyclophilin expression was quantified with custom-made primers and probe (Forward primer: [NT]. ID. NO: 1), Reverse primer: [NT]. ID. NO: 2; Probe: [NT]. ID. NO: 3).

[2] = system: ESC-derived definitive endoderm; test: Nkx2-1+ endoderm induction from ESC-derived endoderm, specification media day 6-14, flow cytometry on day 14; format: cell-based, mouse; details: for Nkx2-1+ cell specification by day 14: factor(s) present in induction media day 6-14; for Nkx2-1+ endodermal induction efficiency: sequential withdrawal of each individual factor from the WFKBE+2 cocktail
Method: Definitive endoderm induction was performed in complete serum-free differentiation medium (cSFDM) consisting of 75% IMDM (Invitrogen 12440) and 25% Ham's Modified F12 medium (Cellgro 10-080-CV) supplemented with N2 and B27+RA (Invitrogen 17502-048 and 17504-44), 0.05% BSA (Invitrogen 15260-037), […] L-glutamine (Invitrogen 25030-081), 0.05 mg/ml ascorbic acid (Sigma A4544) and 4.5×10^-4M MTG (Sigma M6145) as previously described (Gouon-Evans et al., 2006, Longmire et al., 2012). Undifferentiated ESCs were trypsinized to form a single cell suspension and plated onto Petri dishes (500,000 cells/10 cm dish) resulting in the formation of embryoid bodies (EBs) over 60 hours. EBs were dissociated by trypsinization (0.05%, 1 min, 37° C.) and plated as single cells into cSFDM supplemented with 50 ng/ml Activin A (R&D systems 338-AC) for an additional 60 hours. For Anteriorization of endoderm, on day 5 (120 total hours of differentiation) EBs were plated onto p100 Petri dishes in Nog/SB media: cSFDM supplemented with 100 ng/ml mNoggin (R&D 1967-NG) and 10 μM SB431542 (Sigma S4317) as previously described (Longmire et al., 2012). For Nkx2-1+ endoderm induction, EBs were plated on gelatin coated 6 well plates at the equivalent density of 200,000 cells/well in Specification media: cSFDM supplemented as stated in the text with 100 ng/ml mWnt3a (R&D 1324-WN), 10 ng/ml hFGF10 (R&D 345-FG), 10 ng/ml mKGF (R&D 5028-KG), 10 ng/ml mBMP4 (R&D 5020-BP), 20 ng/ml hEGF (R&D 236-EG), 250 ng/ml mFGF2 (R&D 3139-FB) and 100 ng/ml Heparin Sodium Salt (Sigma […]2-1mCherry+ cells, or the populations otherwise indicated in the text were sorted using MoFlo or […] II SORP high speed cell sorters and replated onto gelatin-coated 24 well plates on day 12-14 at a density of 5×10^4 cells/well. Where indicated in the text, small molecule inhibitors were dissolved in DMSO according to manufacturer's instructions and added to the culture media from day 6 to 14 at the following working concentrations: Dorsomorphin 4 μM (Sigma P5499), PD98059 20 μM, SB203580 10 μM (both from Cell Signaling Technology, PHZ1164 and 5633), and LY294002 […] (Promega V1201).

CC1(C)CC=C(C#Cc2ccccc2)c2cc(/C=C/c3ccc(C(=O)O)cc3)ccc21 [BMS493]
nkx2-1 induction in the developing thyroid primordium (Xenopus embryos): normal nkx2-1 induction

CC(C)Oc1ccc(-c2cnc3c(-c4ccnc5ccccc45)cnn3c2)cc1 [DMH-1]
induction of thyroid markers foxe1, nkx2-1, pax2 and hhex (Xenopus embryos): abrogated induction of all four thyroid markers in the vast majority of embryos | phosphorylation of SMAD1/5/8, pSmad1/5 content (pSmad1/5): substantial reduction in pSmad1/5 content; also recorded: marked reduction in phosphorylation of SMAD1/5/8 | induction of Nkx2-1 and Pax8, thyroid bud formation (mouse foregut explants): no thyroid bud was apparent; also recorded: blocked induction of both Nkx2-1 and Pax8

Cc1c[nH]c(/C=C2\C(=O)Nc3ccccc32)c1CCC(=O)O [SU5402]
induction of thyroid markers foxe1, nkx2-1, pax2 and hhex (Xenopus embryos): abrogated induction of all four thyroid markers in the vast majority of embryos

Oc1nc(-c2ccc(C(F)(F)F)cc2)nc2c1CSCC2 [XAV939, reference compound]
efficiency of lineage specification of Nkx2-1GFP+; Pax8tdTomato trace+ cells [1]: no significant impact | nkx2-1 induction in the developing thyroid primordium (Xenopus embryos): normal nkx2-1 induction

Nc1ncnc2c1ncn2[C@@H]1O[C@@H]2COP(=O)(O)O[C@H]2[C@H]1O [cAMP, cyclic adenosine monophosphate, reference compound]
thyroid specific gene expression (Nkx2-1mCherry ESC line): increase thyroid specific gene expression | maturation marker expression (Nkx2-1mCherry ESC line; withdrawal of the factor from the DCI+K cocktail, day 22-26): adversely affected maturation

fibroblast growth factor 2 (basic) [FGF2]
efficiency of lineage specification, percent yield of GFP+/tdTomato+ cells [1]: significant decrease in the percent yield of GFP+/tdTomato+ cells | Nkx2-1+ cell specification by day 14 [2]: induced low numbers of Nkx2-1+ cells with little thyroid competence | Nkx2-1+ endodermal induction efficiency [2]: indispensible for efficient Nkx2-1+ endodermal induction

thyroid stimulating hormone [TSH]
Nis, Tsh-r, and Tpo expression (Nkx2-1mCherry ESC line; TSH added after lineage specification, day 14-22): significant augmentation of Nis, Tsh-r, and Tpo expression | expression of lineage markers Nkx2-1 and Pax8 (Nkx2-1mCherry ESC line; TSH added day 14-22, data not shown): no significant change | efficiency of thyroid lineage specification (Nkx2-1mCherry ESC line; TSH added prior to lineage specification, day 9-12, data not shown): no detectable effect | Nis and Tsh-r expression (Nkx2-1mCherry ESC line; additional 3 days of culture maturation in the presence of TSH (Day 25 vs Day 22)): further augmentation of Nis and Tsh-r expression | thyroid specific gene expression (Nkx2-1mCherry ESC line): increase thyroid specific gene expression | thyroid maturation marker Nis (Nkx2-1mCherry ESC line; substitution of TSH for cAMP in the DCI+K media, day 22-26): most robust augmentation of the thyroid maturation marker, Nis

B1: bone morphogenetic protein 4 (protein, UniProt P12644 293-408, looked up)
Bone morphogenetic protein 4: SPKHHSQRARKKNKNCRRHSLYVDFSDVGWNDWIVAPPGYQAFYCHGDCPFPLADHLNSTNHAIVQTLVNSVNSSIPKACCVPTELSAISMLYLDEYDKVVLKNYQEMVVEGCGCR
notes: growth factor in specification media
efficiency of lineage specification, percent yield of GFP+/tdTomato+ cells [1]: significant decrease in the percent yield of GFP+/tdTomato+ cells | Nkx2-1+ cell specification by day 14 [2]: induced low numbers of Nkx2-1+ cells with little thyroid competence | Nkx2-1+ endodermal induction efficiency [2]: indispensible for efficient Nkx2-1+ endodermal induction

B2: Dkk1: Wnt inhibitor (protein, UniProt O94907 32-266, looked up)
Dickkopf-related protein 1: TLNSVLNSNAIKNLPPPLGGAAGHPGSAVSAAPGILYPGGNKYQTIDNYQPYPCAEDEECGTDEYCASPTRGGDAGVQICLACRKRRKRCMRHAMCCPGNYCKNGICVSSDQNHFRGEIEETITESFGNDHSTLDGYSRRTTLSSKMYHTKGQEGSVCLRSSDCASGLCCARHFWSKICKPVLKEGQVCTKHRRKGSHGLEIFQRCYCGEGLSCRIQKDHHQASNSSRLHTCQRH
efficiency of lineage specification of Nkx2-1GFP+; Pax8tdTomato trace+ cells [1]: no significant impact
